Test results: publication PMC8707145, “Synthesis, Molecular Docking and Antiplasmodial Activities of New Tetrahydro-β-Carbolines” (International Journal of Molecular Sciences, 2021)
Like-named read-outs stand apart in the source and are kept apart here.

Experiments:
[1] = test system: human microvascular endothelial (HMEC-1) cell line; settings: read-out: IC50 on HMEC-1 cell line, ref [21]; cited from earlier work
[2] = test system: P. falciparum W2 (CQ-resistant) strain; test: P. falciparum drug susceptibility assay (pLDH), W2 strain; type: cell-based, Plasmodium falciparum; settings: for IC50: Plasmodium falciparum, read-out: P. falciparum IC50 W2; for RI (resistance index): RI = IC50 CQ resistant P. falciparum strain/IC50 CQ sensitive P. falciparum strain
Procedure: Plasmodium falciparum cultures were established according to the method of Trager and Jensen, with slight modifications. The CQ-susceptible strain, D10, and the CQ-resistant strain, W2, were maintained in human type A-positive red blood cells at 5% hematocrit in RPMI 1640 medium with the addition of 1% AlbuMax, 0.01% hypoxanthine, 20 mM Hepes, and 2 mM glutamine. Cultures were maintained at 37 °C in a gas mixture consisting of 1% O2, 5% CO2, and 94% N2. Compounds were dissolved in DMSO and diluted with medium to achieve the required concentrations (final DMSO concentration <1%, which is non-toxic to the parasite). Drugs were introduced into 96-well flat-bottomed microplates and serial dilutions made. Asynchronous cultures with parasitaemia of 1–1.5% and 1% final hematocrit were aliquoted into the plates and incubated for 72 h at 37 °C. Parasite growth was determined spectrophotometrically (OD650) by measuring the activity of parasite lactate dehydrogenase (pLDH), according to a modified version of the method of Makler, in both control and drug-treated cultures.

[3] = test system: P. falciparum D10 (CQ-sensitive) strain; test: P. falciparum drug susceptibility assay (pLDH), D10 strain; type: cell-based; settings: Plasmodium falciparum, read-out: P. falciparum IC50 D10
Procedure: Plasmodium falciparum cultures were established according to the method of Trager and Jensen, with slight modifications. […] Drugs were introduced into 96-well flat-bottomed microplates and serial dilutions made. […] Parasite growth was determined spectrophotometrically (OD650) by measuring the activity of parasite lactate dehydrogenase (pLDH), according to a modified version of the method of Makler, in both control and drug-treated cultures.

[4] = test system: human microvascular endothelial (HMEC-1) cell line; test: Cytotoxicity assay on HMEC-1 cell line (MTT); type: cell-based; settings: for SI D10: SI = IC50 HMEC-1/IC50 P. falciparum D10 strain; for SI W2: SI = IC50 HMEC-1/IC50 P. falciparum W2 strain
Procedure: (§1) The long-term human microvascular endothelial cell line (HMEC-1) was maintained in MCDB 131 medium supplemented with 10% fetal calf serum, 10 ng/mL of epidermal growth factor, 1 µg/mL of hydrocortisone, 2 mM glutamine and 20 mM Hepes buffer. For the cytotoxicity assays, cells were treated with serial dilutions of test compounds and cell proliferation evaluated using the MTT assay. Plates were incubated for 72 h at 37 °C in 5% CO2, then 20 µL of a 5 mg/mL solution of 3-(4,5-dimethylthiazol-2-yl)-2,5-diphenyltetrazolium bromide (MTT) in PBS was added for an additional 3 h at 37 °C. The plates were then centrifuged, the supernatants discarded, and the dark blue formazan crystals dissolved using 100 µL of lysing buffer consisting of 20% (w/v) of a solution of SDS, 40% of N,N dimethylformamide in H2O, at pH 4.7 adjusted with 80% acetic acid. The plates were then read on a microplate reader (Synergy 4 Bio-Tek Instruments, Thermo Fisher Scientific, Waltham, MA, USA) at a test wavelength of 550 nm and a reference wavelength of 650 nm. All the tests were performed in triplicate at least three times.

[5] = Cytotoxicity assay on HMEC-1 cell line (MTT); type: cell-based, human; settings: human, HMEC-1 cells; HMEC-1, MTT, 72 h
Procedure: as §1

[6] = test system: normal dermal fibroblasts; design: method as in PMID 30411030; settings: ref [11]; cited from earlier work
P. falciparum 3D7 strain = test system: P. falciparum 3D7 strain; design: method as in PMID 30411030; settings: ref [11], cited from earlier work
[7] = test system: P. falciparum RKL-9 strain; design: method as in PMID 30411030; settings: ref [11], cited from earlier work
P. falciparum = settings: read-out: 50% inhibitory concentration (IC50); range of values; no diminished potency against drug-resistant strains; ref [8]; cited from earlier work
[8] = Determination of hemolytic activity; type: cell-based; settings: human erythrocytes, released hemoglobin, read-out: level of hemolysis
Procedure: We also sought to investigate the hemolytic potential of the synthetized compounds. […] We incubated these compounds at a concentration of 10 µM, with human erythrocytes, and then, by measuring the released hemoglobin, we assessed their potential harmful effects on these cells. The measured level of hemolysis was less than 5% for all agents, which proves that the compounds are not hemolytic. It is worth emphasizing at this point that this type of test is extremely important to confirm that the observed inhibitory activity against Plasmodium is a result of a compound acting directly upon it and not as a result of red blood cell lysis.
The study protocol was approved by the Bioethics Commission at the Lower Silesian Medical Chamber (1/PNHAB/2018, approval date 14 February 2018), and experiments were performed as previously described. Compounds dissolved in DMSO were added in a volume corresponding to a final concentration of 10 µM in the sample. Negative (erythrocytes in PBS buffer), positive (erythrocytes in distilled water), and DMSO controls were also prepared.

P. falciparum Dd2 strain = test system: P. falciparum Dd2 strain; design: method as in PMID 29072835; settings: ref [10], read-out: IC50 growth of P. falciparum Dd2 strain; cited from earlier work
[9] = W2 (CQ-resistant) strain, 72 h, pLDH
[10] = D10 (CQ-sensitive) strain, 72 h, pLDH

SMILES | IC50 [2, 9] | RI (resistance index) [2] | IC50 [3, 10] | SI D10 [4] | SI W2 [4] | IC50 at 72 h [5] | further results
CCN(CC)CCCC(C)Nc1ccnc2cc(Cl)ccc12 (stereo not shown) [CQ, chloroquine, reference compound] | – | – | – | – | – | – | IC50 [1]: > 38 µM; IC50 ([2]; W2, 72 h): 0.27 ± 0.07 µM; IC50 ([3]; D10, 72 h): 0.017 ± 0.006 µM
O=C(NC1CCCCCCC1)C1Cc2c([nH]c3ccccc23)CN1 (stereo not shown) [Compound 2, N-cyclooctyl-2,3,4,9-tetrahydro-1H-pyrido[3,4-b]indole-3-carboxamide] | 10.1 ± 2.14 µM | 0.46 | 21.9 ± 5.82 µM | – | – | – | –
CCC1NC(C(=O)NC23CC4CC(CC(C4)C2)C3)Cc2c1[nH]c1ccccc21 (stereo not shown) [Compound 6, N-(Adamantan-1-yl)-1-ethyl-2,3,4,9-tetrahydro-1H-pyrido[3,4-b]indole-3-carboxamide] | 11.4 ± 0.82 µM | 1.17 | 9.73 ± 0.96 µM | 2.17 | 1.86 | 21.1 ± 8.82 µM | –
COC(=O)[C@@H]1Cc2c([nH]c3ccccc23)[C@@H](c2ccc3c(c2)OCO3)N1 [Compound 9a] | – | – | – | – | – | – | toxicity to normal dermal fibroblasts [6]: nontoxic; IC50 (P. falciparum 3D7 strain; 3D7 strain): < 2.86 µM; selectivity index 3D7 (P. falciparum 3D7 strain; against 3D7 strain): > 10; IC50 ([7]; RKL-9 strain): < 2.86 µM; selectivity index RKL-9 ([7]; against RKL-9 strain): > 10
O=C(NCC1COCCO1)C1Cc2c([nH]c3ccccc23)C(c2ccc(Cl)cc2)N1 (stereo not shown) [Compound 11, N-((1,4-dioxan-2-yl)methyl)-1-(4-chlorophenyl)-2,3,4,9-tetrahydro-1H-pyrido[3,4-b]indole-3-carboxamide] | 29.1 ± 4.05 µM | 0.82 | 35.4 ± 4.86 µM | – | – | – | –
C[C@H]1Cc2c([nH]c3cc(Cl)c(F)cc23)[C@@]2(N1)C(=O)Nc1ccc(Cl)cc12 [Cipargamin] | – | – | – | – | – | – | IC50 (P. falciparum): 0.0005 to 0.0014 µM
CC(C)(C)CC(C)(C)NC(=O)C1Cc2c([nH]c3ccccc23)C(c2ccc(Cl)cc2)N1 (stereo not shown) [Compound 9, 1-(4-chlorophenyl)-N-(2,4,4-trimethylpentan-2-yl)-2,3,4,9-tetrahydro-1H-pyrido[3,4-b]indole-3-carboxamide] | 6.41 ± 1.05 µM | 0.76 | 8.41 ± 1.2 µM | 2.25 | 2.95 | 18.9 ± 10.2 µM | –
O=C(NCCCN1CCOCC1)C1Cc2c([nH]c3ccccc23)C(c2ccc(Cl)cc2)N1 (stereo not shown) [Compound 12, 1-(4-chlorophenyl)-N-(3-morpholinopropyl)-2,3,4,9-tetrahydro-1H-pyrido[3,4-b]indole-3-carboxamide] | 6.15 ± 0.46 µM | 0.54 | 11.5 ± 0.34 µM | 8.91 | 16.60 | 102 ± 14.8 µM | hemolysis at 10 µM [8]: < 5%
CC1NC(C(=O)N2CCCCC2)Cc2c1[nH]c1ccccc21 (stereo not shown) [Compound 3, (1-methyl-2,3,4,9-tetrahydro-1H-pyrido[3,4-b]indol-3-yl)(piperidin-1-yl)methanone] | 9.6 ± 0.78 µM | 0.73 | 13.2 ± 2.85 µM | 11.93 | 16.37 | 157 ± 42.5 µM | hemolysis at 10 µM [8]: < 5%
CC1NC(C(=O)NC2CCCCC2)Cc2c1[nH]c1ccccc21 (stereo not shown) [Compound 4, N-cyclohexyl-1-methyl-2,3,4,9-tetrahydro-1H-pyrido[3,4-b]indole-3-carboxamide] | 20.1 ± 2.79 µM | 0.94 | 21.4 ± 4.7 µM | – | – | – | –
O=C(O)[C@@H]1Cc2c([nH]c3ccccc23)[C@@H](c2ccc(Cl)cc2Cl)N1 [MMV008138] | – | – | – | – | – | – | IC50 (P. falciparum Dd2 strain): 0.25 µM
CC1NC(C(=O)NCC2CCCCC2)Cc2c1[nH]c1ccccc21 (stereo not shown) [Compound 5, N-(cyclohexylmethyl)-1-methyl-2,3,4,9-tetrahydro-1H-pyrido[3,4-b]indole-3-carboxamide] | 16.2 ± 4.11 µM | 0.48 | 33.5 ± 7.58 µM | – | – | – | –
CC(C)(C)CCNC(=O)C1Cc2c([nH]c3ccccc23)C(c2ccc(Cl)cc2)N1 (stereo not shown) [Compound 8, 1-(4-chlorophenyl)-N-(3,3-dimethylbutyl)-2,3,4,9-tetrahydro-1H-pyrido[3,4-b]indole-3-carboxamide] | 7.8 ± 1.54 µM | 0.74 | 10.5 ± 1.53 µM | 1.71 | 2.30 | 17.9 ± 9.46 µM | –
O=C(NCC1CCCCC1)C1Cc2c([nH]c3ccccc23)C(c2ccc(Cl)cc2)N1 (stereo not shown) [Compound 14, 1-(4-chlorophenyl)-N-(cyclohexylmethyl)-2,3,4,9-tetrahydro-1H-pyrido[3,4-b]indole-3-carboxamide] | > 47.4 µM | – | > 47.4 µM | – | – | – | –
O=C(NC1CCCCC1)[C@@H]1Cc2c([nH]c3ccccc23)[C@@H](c2ccc(Cl)cc2)N1 (racemic) [1RS,3SR-13, (1RS,3SR)-1-(4-chlorophenyl)-N-cyclohexyl-2,3,4,9-tetrahydro-1H-pyrido[3,4-b]indole-3-carboxamide] | 9.13 ± 0.83 µM | 0.73 | 12.5 ± 0.71 µM | – | – | > 123 µM | –
O=C(NC1CCCCC1)[C@@H]1Cc2c([nH]c3ccccc23)[C@H](c2ccc(Cl)cc2)N1 (racemic) [1RS,3RS-13, (1SR,3SR)-1-(4-chlorophenyl)-N-cyclohexyl-2,3,4,9-tetrahydro-1H-pyrido[3,4-b]indole-3-carboxamide] | 13.5 ± 1.99 µM | 0.84 | 16.1 ± 3.36 µM | 3.35 | 4.00 | 53.8 ± 21.9 µM | –
O=C(NCC1CCCO1)C1Cc2c([nH]c3ccccc23)C(c2ccc(Cl)cc2)N1 (stereo not shown) [Compound 10, 1-(4-chlorophenyl)-N-((tetrahydrofuran-2-yl)methyl)-2,3,4,9-tetrahydro-1H-pyrido[3,4-b]indole-3-carboxamide] | 20.5 ± 2.2 µM | 0.70 | 29.4 ± 7.88 µM | – | – | – | –
CCCCCCCCC1NC(C(=O)NCCC(C)(C)C)Cc2c1[nH]c1ccccc21 (stereo not shown) [Compound 7, N-(3,3-dimethylbutyl)-1-octyl-2,3,4,9-tetrahydro-1H-pyrido[3,4-b]-indole-3-carboxamide] | 4 ± 0.53 µM | 0.90 | 4.45 ± 0.83 µM | 16.18 | 18.00 | 72 ± 22.4 µM | hemolysis at 10 µM [8]: < 5%
